Source: patent publication US5514687A, “Benzopyrido piperidylidene compounds, compositions, methods of manufacture and method of use” (Schering Corporation, priority 1993, dated 1996)

How the values were obtained:
PAF = assay: PAF-induced bronchospasm in guinea pigs (in vivo, oral); set-up: species or system guinea pig; conditions: PAF 0.4 μg/kg i.v.
Procedure: (§1) B. In Vivo Studies: Agonist-Induced Responses Spasmogen-Induced Bronchospasm in Guinea Pigs
(§2) Male Hartley guinea pigs (450-550 g) were obtained from Charles River Breeding Laboratories. The animals were fasted overnight and the following day were anesthetized with 0.9 mL/kg i.p. of dialurethane (containing 0.1 g/mL dialylbarbiturikc acid, 0.4 g/mL ethylurea and 0.4 g/mL urethane). The left jugular vein was cannulated for the administration of compounds. The trachea was cannulated and the animals were venticlated by a rodent respirator at 55 strokes/min. with a stroke volume of 4 mL. A side arm to the tracheal cannula was connected to a pressure transducer to obtain a continuous measure of inflation pressure. Bronchoconstriction was measured as the percent increase in inflation pressure that peaked within 5 min. after challenge with spasmogen. The animals were challenged i.v. with either histamine (10 ug/kg) or PAF (0.4 μg/kg in isotonic saline containing 0.25% BSA). Each animal was challenged with only a single spasmogen. The effect of a compound on the bronchospasm is expressed as a percent inhibition of the increase in inflation pressure compared to the increase in a control group.

Histamine = assay: Histamine-induced bronchospasm in guinea pigs (in vivo, oral); set-up: species or system guinea pig; conditions: histamine 10 ug/kg i.v.
Procedure: as §1, §2

[1] = test system: PAF-induced platelet aggregation; assay: Platelet Aggregation Assay (PAF antagonism, in vitro); assay type: cell-based; conditions: human platelet-rich plasma, PAF 1-5×10^-8 M, 37° C.
Procedure: Platelet Aggregation Assay
Platelet-activating factor (PAF) causes aggregation of platelets by a receptor-mediated mechanism. Therefore, PAF-induced platelet aggregation provides a simple and convenient assay to screen compounds for PAF antagonism.
Human blood (50 mL) was collected from healthy male donors in an anticoagulant solution (5 mL) containing sodium citrate (3.8%) and dextrose (2%), Blood was centrifuged at 110×g for 15 min. and the supeernatant platelet-rich plasma (PRP) carefully transferred into a polypropylene tube. Platelet-poor-plasma (PPP) was prepared by centrifuging PRP at 12,000×g for 2 min. (Beckman Microfuge B). PRP was used within 3 hr. of drawing the blood.
PAF was dissolved In chloroform:methanol (1:1, v/v) at a concentration of 2 mg/mL and stored at -70° C. An aliquot of this solution was transferred to a polypropylene tube and dried under a flow of nitrogen gas. To the dried sample was added Hepes-e-BSA (BSA=bovine serum albumen) buffer (25 mM Hepes, pH 7.4, […], 0.7 mM MgCl2 and 0.1% BSA) to obtain a 1 mM solution and sonicated for 5 min. in a bath sonicator. This stock solution was further diluted to appropriate concentrations in Hepes-saline-BSA buffer. Collagen (Sigma) and adenosine diphosphate (ADP) (Sigma) were purchased as solutions. Test compounds were initially dissolved in dimethyl sulfoxide (DMSO) at a concentration of 50 mM and then further diluted in Hepes-saline-BSA buffer to achieve appropriate concentrations.
When an aggregating agen such as PAF is added to PRP, platelets aggregate. An aggregometer quantifies this aggreation by measuring and comparing light (infra-red) transmission through PPP and PRP. Aggregation assays were performed using a dual-channel aggregometer (Model 440, Chrono-Log Corp., Havertown, Pa.). PRP (0.45 mL) in aggregometer cuvettes was continually stirred (37° C.). Solution (50 μL) of test compounds or vehicle were added to the PRP and, after incubation for 2 min., 10-15 μl aliquots of PAF solution were added to achieve a final concentration of 1-5×10^-8 M. In different experiments the aggregatory response was kept within a set limit by varying the concentration of PAF. Incubations were continued until the increase in light transmission reached a maximum (usually 2 min.). This increase in lighyt transmission reflecting platlet aggregation is transmitted to a computer by the Chrono-Log model 810 AGGRO/LINK interface. The AGGRO/LINK calculates the slope of transmission change, thus providing the rate of aggregation. Values for inhibition were calculated by comparing rates of aggregation obtained in the absence and the presence of the compound. […]

[2] = oral 3 mg/kg, 2 hours after drug
[3] = oral 15 mg/kg, 8 hours after drug
[4] = oral 5 mg/kg, 8 hours after drug
[5] = oral 15 mg/kg, 16 hours after drug
[6] = oral 10 mg/kg, 6 hours after drug
[7] = oral 10 mg/kg, 16 hours after drug

SMILES | Agonist Bronchospasm (in vivo)-Oral, PAF, Inhibition (PAF; [2]) | Agonist Bronchospasm (in vivo)-Oral, PAF, Inhibition (PAF; [3]) | Agonist Bronchospasm (in vivo)-Oral, Histamine, Inhibition (Histamine; [2]) | Agonist Bronchospasm (in vivo)-Oral, Histamine, Inhibition (Histamine; [3]) | IC50 [1] | Agonist Bronchospasm (in vivo)-Oral, PAF, Inhibition (PAF; oral 10 mg/kg, 2 hours after drug) | Agonist Bronchospasm (in vivo)-Oral, PAF, Inhibition (PAF; [4]) | Agonist Bronchospasm (in vivo)-Oral, PAF, Inhibition (PAF; [5]) | Agonist Bronchospasm (in vivo)-Oral, Histamine, Inhibition (Histamine; [4]) | Agonist Bronchospasm (in vivo)-Oral, Histamine, Inhibition (Histamine; [5]) | Agonist Bronchospasm (in vivo)-Oral, PAF, Inhibition (PAF; [6]) | Agonist Bronchospasm (in vivo)-Oral, PAF, Inhibition (PAF; [7]) | Agonist Bronchospasm (in vivo)-Oral, Histamine, Inhibition (Histamine; [6]) | Agonist Bronchospasm (in vivo)-Oral, Histamine, Inhibition (Histamine; [7])
CC(=O)N1CCC(=C2c3ccc(Cl)cc3CCc3cccnc32)CC1 [Compound No. 1] | 3% | 32% | 49% | 100% | 600 nM |  |  |  |  |  |  |  |  | 
CC(=O)N1CCC(=C2c3ccc(Cl)cc3OCc3cccnc32)CC1 [Compound No. 2] |  |  |  |  | 6000 nM | 27% |  |  |  |  |  |  |  | 
O=C(c1cc[n+]([O-])cc1)N1CCC(=C2c3ccc(Cl)cc3CCc3cccnc32)CC1 [Compound No. 3] | 93% |  | 37% |  | 200 nM |  | 12% | 13% | 33% | 64% |  |  |  | 
O=C(c1cc[n+]([O-])cc1)N1CCC(=C2c3ccc(Cl)cc3OCc3cccnc32)CC1 [Compound No. 4, 4-(8-Chloro-5,11-dihydro 1!benzoxepino 4,3-b!pyridin-11-ylidene)-1-(4-pyridinylcarbonyl)piperidine N^1-oxide] | 76% |  | 46% |  | 400 nM |  |  |  |  |  | 94% | 55% | 73% | 95%
